# Experimental data published in patent US20130202614A1, “AUTOTAXIN PATHWAY MODULATION AND USES THEREOF” (B.S.R.C. "ALEXANDER FLEMING", priority 2010, published 2013).
# How the values were obtained:
# Format in all cases: cell-based, mouse
# primary SFs [1] = experiment: Synovial fibroblast proliferation assay ([3H]thymidine incorporation); conditions: for LPA responses of wt SFs (LPA-induced proliferation): pre-treated with inhibitor prior to LPA stimulation
# Description: Primary SFs were isolated from 6-8 week old mice as previously described. Briefly, mouse joint specimens were minced and digested with type IV collagenase. The released cells were grown in Dulbecco's modified Eagle's medium (DMEM) supplemented with fetal bovine serum (FBS) and penicillin-streptomycin. Isolated fibroblasts adhered on culture dishes were maintained under standard conditions (37° C. and 5% CO2) and used for the experiments between the third and fifth passages.
# Cells were starved with serum-free medium before treatment due to the presence of lysophospholipids in the serum Starvation medium is supplemented with 0.2% fatty-acid-free BSA. After routine starvation, cells were stimulated with various concentrations of the tested compounds (LPA, LPC, S1P or TNF) as indicated in details below. Where indicated cells were pre-treated with the inhibitors of ERK MAPK, p38 MAPK, JNK and Rho kinase for 3 hours prior to LPA stimulation. At the moment of cell treatment, the culture medium was replaced with fresh serum-free medium containing various concentrations of the tested compounds.
# Preconfluent cell cultures were starved overnight, incubated for 24 h with LPA and the rest tested compounds and finally exposed to 0.5 μCi/ml of [^3H]thymidine. Cells were then washed, harvested by trypsinization and blotted on a membrane. The radioactivity of incorporated [^3H]-thymidine was determined by liquid scintillation counting.
# primary SFs [2] = experiment: SF proinflammatory cytokine secretion (multiplex Luminex ELISA); conditions: especially IL-6
# primary SFs [3] = experiment: SF actin cytoskeleton rearrangement (phalloidin F-actin staining); conditions: phaloidin-F-actin staining
# Description: Cells were cultured on glass coverslips, grown in the presence of serum to subconfluence, and starved for 24 h by replacing the medium with serum-free medium containing 0.1% bovine serum albumin. Then the cells were treated with LPA and other components in serum-free medium for 4 h, fixed with 4% PFA and stained for F-actin with TRITC-conjugated phalloidin according to the manufacturer's protocol.
# BDM macrophages = experiment: BMDM cytokine secretion (Luminex); conditions: upon LPA stimulation
# BMD macrophages = experiment: Macrophage proliferation upon LPA addition; conditions: primary cultures
# primary SFs [4] = experiment: SF cell migration assay (Boyden chambers); conditions: LPA stimulation
# Description: Modified Boyden chambers with 8-μm pores (Corning/Costar) were used where the lower surface of the membrane was coated with 10 μg/ml human fibronectin for 2 hours at 37° C. Cells were harvested with trypsin/EDTA, washed with PBS, and resuspended to 1×10^6 cells per ml. The suspension was added to the upper chamber, and the cells were allowed to migrate at 37° C., 5% CO2, for 4 hours. Non-migratory cells were removed from the upper surface of the membrane while migratory cells in the lower compartment of the chambers were washed with PBS and stained with 0.2% crystal violet in 10% ethanol for 10 min. After extensive washing in H2O, the cells were lysed and absorbance was measured at 570 nm with a SPECTRAmax photometer.
# primary SFs [5] = experiment: MMP production by SFs (RT-PCR); conditions: MMP-9
# Description: Total RNA was extracted from subconfluent cultured SFs with the TRIzol reagent (Invitrogen Ltd, Paisley, PA4 9RF, UK Carlsbad, Calif. 92008) according to the manufacturer's instructions. RNA yield and purity were determined spectrophotometrically at 260/280 nm. cDNA synthesis was performed using the MMLV reverse transcriptase (Promega, Madison, Wis., United States Madison, Wis. 53711 USA). In all cases the normalization was performed in relation to the B2m internal control.
# SQ PCR was performed by 20-27 cycles of denaturation at 95° C. for 30 s, annealing at 56-60° C. (depending on the Tm of each individual set of primers) for 30 s, and extension at 72° C. for 1 min, in a final volume of 20 μl. The products were separated by electrophoresis on 1.5% agarose gel and stained with ethidium bromide. […] Quantitative real-time PCR was performed using the iCycler Iq Real-Time detection system and the IQ SYBR Green Supermix (Bio-Rad Laboratories, Hercules, Calif., United States), according to the manufacturer's instructions, for one cycle of 95° C. for 3 min, and 42 cycles of denaturation at 95° C. for 30 s and annealing at 56-58° C. for 45 s. […]
# primary SFs [6] = experiment: SF adhesion assay (fibronectin); conditions: LPA stimulation
# Description: This assay was performed on plates coated with human fibronectin. Briefly, cells were allowed to adhere to the substrate, and unbound cells were removed with sequential washes with PBS. Adhered cells were then stained with crystal violet, solubilized, and their absorbance was determined at 570 nm. The experiment was performed in triplicates.
compound,measurement,setting,value
C[C@@H](N)[C@H]1CC[C@H](C(=O)Nc2ccncc2)CC1 [Hybridoma Y27632],LPA responses of wt SFs (LPA-induced proliferation),primary SFs [1],inhibited
"CCCCCCCC/C=C\CCCCCCCC(=O)OC[C@@H](O)COP(=O)([O-])OCC[N+](C)(C)C [LPC, 1-oleoyl-LPC (18:1)]",proliferation of mRA SFs,primary SFs [1]; 3H-thymidine incorporation,did stimulate the proliferation
same,proliferation of wt SFs,primary SFs [1]; 3H-thymidine incorporation,no effects
1-oleoyl-LPA (18:1),proinflammatory cytokine secretion from SFs,primary SFs [2],stimulated proinflammatory cytokine secretion
same,SF actin cytoskeleton,primary SFs [3],rearrangements of their actin cytoskeleton
same,cytokine secretion from BDM macrophages,BDM macrophages,No differences
same,proliferation of macrophages,BMD macrophages,no effects
same,SF migration,primary SFs [4],increased
same,proliferation of wt SFs,primary SFs [1]; 3H-thymidine incorporation,stimulated the proliferation
same,synergy with TNF on SF proliferation,primary SFs [1]; different concentrations of LPA and/or TNF,synergizes with TNF
same,production of matrix metaloproteinases (MMPs) by SFs,primary SFs [5],stimulated
same,SF adhesion,primary SFs [6],increased
COc1cccc(-c2cc(=O)c3ccccc3o2)c1N [PD98059],LPA responses of wt SFs (LPA-induced proliferation),primary SFs [1],inhibited
C[S+]([O-])c1ccc(-c2nc(-c3ccncc3)c(-c3ccc(F)cc3)[nH]2)cc1 (centres unmarked) [SB203580],LPA responses of wt SFs (LPA-induced proliferation),primary SFs [1],inhibited
